{"source": "patent US20200268864A1", "about": "“CANCER VACCINE COMPOSITIONS AND METHODS FOR USING SAME TO TREAT CANCER” (Dana-Farber Cancer Institute, Inc., priority 2017, published 2020)", "key": {"[1]": {"test_system": "human DCs co-cultured with UWB1.289", "test": "Co-culture of human DCs with olaparib-treated UWB1.289 cells", "type": "cell-based", "conditions": "BRCA1-deficient UWB1.289", "description": "(§1) Bone marrow cells were isolated from FVB/NJ mice and cultured in RPMI-1640 containing 10% FBS and 20 ng/ml GM-CSF. BMDCs (bone marrow derived dendritic cells) were harvested for in vitro co-culture assay on day 7 to day 10. About 3×10^5 PBM or PPM tumor cells were cultured in a 6-well plate for 24 hr. and then treated with DMSO or olaparib. After 24 hr incubation with DMSO, olaparib, or olaparib in combination with other drugs (cell cycle inhibitor or apoptosis inhibitor), drugs were removed and tumor cells were washed twice with PBS. BMDCs were added and co-cultured with PBM or PPM cells at a ratio of 1:1 in 1.5 ml culture media in the presence of GM-CSF (20 ng/ml) and lipofectamine (2 μl) for 24 hr. Co-cultured cells were harvested for flow cytometry analysis and floating cells (percentage of BMDCs is about 90%), or RNA analysis. Cell culture supernatants were collected for detection of IFN-β with the ELISA kit. BMDCs generated from C57BL/6J mice were applied for the coculture of BMDCs with ID8 tumor cells. Human dendritic cells purchased from Lonza were used for the coculture of human DCs with DMSO or olaparib-treated human ovarian cancer cells ([…] and UWB1.289+BRCA1)."}, "[2]": {"test_system": "STING pathway in BMDCs co-cultured with PBM cells", "test": "Co-culture of BMDCs with olaparib-treated PBM tumor cells", "type": "cell-based, mouse", "description": "Blood was obtained by retro-orbital sampling at intermediate time points or experimental end points. Blood cells and plasma/sera were separated by centrifugation at 1,500×g for 5 min. at 4° C. Plasmaisera were sent out to Eve Technologies for cytokine array analysis (Chemokine Array 31-Plex and Mouse Procarta IFN 2-plex Featured Assay). Plasma/sera were applied to ELISA according to manufacturer's instructions. For in vitro experiments, cell culture supernatants were obtained by centrifugation at 1,500×g for 5 min. at 4° C. to remove all debris and cells, and were then subjected to ELISA analysis. IFN-β was detected using the LEGEND MAX™ Mouse IFN-β ELISA Kit (BioLegend).\nas §1\nAbout 50 to 100 mg of tumor samples were homogenized in 1 ml of TRIzol™ Reagent supplied with 200 μl of stainless steel beads and 0.2 ml of chloroform was added to the samples. Samples were vortexed vigorously for 15 seconds and then incubated at room temperature for 2 to 3 minutes. After centrifugation at 12,000×g for 15 minutes at 4° C., upper aqueous phase of the samples was carefully removed to a new tube and the total RNA was purified using an RNeasy® Mini Kit (Qiagen) according to manufactory's instruction. For the in vitro cultured cell samples, total RNA was isolated using an RNeasy® Mini Kit. The qPCR was performed on an Applied Biosystems 7300 machine after the total RNA was reverse transcribed to cDNA using the SuperScript® III First-Strand Synthesis System (Invitrogen). Primers used for qPCR were as follows: […]"}, "[3]": {"test_system": "STING pathway in PBM tumors", "test": "STING pathway activation in PBM tumors (p-TBK1/p-IRF3 flow cytometry, IFN-β/CXCL10 RT-qPCR)", "type": "in vivo, mouse", "conditions": "for phosphorylation of TBK1 and IRF3 in intratumoral DCs and macrophages: PBM tumors", "description": "Tumors were first mechanically disrupted by chopping, then chemically digested in collagenase buffer (8 mL DMEM, 0.1 mL 1M HEPES, 0.5 mL FBS, 0.2 mL Pen/Strep, 1 m, 10× collagenase/hyaluronidase (Stemcell Technologies), 0.2 mL of 1 mg/mL DNase I (Stemcell Technologies) at 37° C. for 45 min. Single-cell suspensions of spleen and lymph nodes were obtained by mashed through a 70 um strainer using the plunger of a 3 mL or 5 mL syringe. Single cells suspensions were treated with red blood lysis buffer (4 mL NH4Cl+1 mL PBS with 2% calf serum) and washed with FACS buffer. Single cells suspensions were incubated with LIVE/DEAD Fixable Aqua Dead Cell Stain (Life Technologies, Cat # L34965) for 30 min and then blocked with anti-CD16/32 (BioLegend, clone 93) for 20 min on ice. Samples were then incubated with appropriate antibodies for 30 min. on ice. The Foxp3 staining buffer set (eBioscience, Cat #00-5523-00) was applied for intracellular markers staining. For the intracellular cytokine analysis, cells were stimulated with Leukocyte Activation Cocktail (BD Biosciences, Cat #550583) at 37° C. for 5 hours prior to FACS staining. The following antibodies were used in the experiments and were purchased from BioLegend unless otherwise indicated: CD45 (clone 30-F11), TCRβ (clone H57-597), CD4 (clone RM4-5), CD8 (clone 53-6.7), CD44 (clone IM7), CD62L (MEL-14), CD25 (PC61), IFNγ (clone XMG1.2), TNFα(clone MP6-XT22), PD-1 (clone 29F.1A12), Tim-3 (clone RMT3-23), LAG-3 (clone C9B7W), CD11b (clone M1/70), CD11c (clone […]), F4/80 (clone BM8), Gr-1 (clone RB6-BC5), Ly-6C (clone HK1.4), Ly-6G (clone 1A8), MHCII (clone M5/114.15.2), CD80 (clone 16-10A1), CD86 (clone GL-1), MHC1 (clone KH114). […] Flow cytometry was performed on an LSR II (BD Biosciences) or LSRFortessa™ HTS (BD Biosciences) at the DFCI flow cytometry core facility, and all the data were analyzed using FlowJo software. […]"}, "[4]": {"test_system": "PBM and PPM tumor cells", "test": "Western blot of cGAS-STING signaling in tumor cells", "type": "cell-based, mouse"}}, "note": "“Also recorded” adds a separate entry of the source."}
{"smiles": "O=C(c1cc(Cc2n[nH]c(=O)c3ccccc23)ccc1F)N1CCN(C(=O)C2CC2)CC1", "note": "[olaparib, Olaparib]", "values": [{"measurement": "levels of p-TBK1+p-IRF3+ and IFN-β in human DCs", "setting": "[1]", "value": "Increased levels"}, {"measurement": "phosphorylation of TBK1 and IRF3 (p-TBK1+p-IRF3+) in BMDCs", "setting": "[2]; co-cultured with olaparib-treated PBM cells vs DMSO", "value": "increased phosphorylation"}, {"measurement": "IFN-β and CXCL10 expression in BMDCs", "setting": "[2]; co-cultured with olaparib-treated vs non-treated/DMSO PBM cells, mRNA and protein", "value": "Significantly enhanced expression; also recorded: markedly increased expression"}, {"measurement": "phosphorylation of TBK1 and IRF3 in intratumoral DCs and macrophages", "setting": "[3]", "value": "increased pTBK1+p-IRF3+"}, {"measurement": "phosphorylation of TBK1 and IRF3 in intratumoral DCs and macrophages", "setting": "[3]; listed as Olaparib", "value": "increased phosphorylation"}, {"measurement": "IFN-β and CXCL10 expression in PBM tumor tissues", "setting": "[3]; RT-qPCR", "value": "induction; also recorded: Increased expression"}, {"measurement": "STING signaling activity in tumor cells", "setting": "[4]", "value": "little STING signaling activity"}]}
